Data on two compounds can be found in patent US9345711B2, “Methods for acute and long-term treatment of drug addiction” (DemeRx, Inc., priority 2014, dated 2016).

“Also recorded” adds a separate entry of the source.

Series [1] can be described thus: Pharmacokinetics of noribogaine in healthy volunteers after single oral dose (plasma, LCMSMS).
Series [2] can be described thus: Safety and tolerability of noribogaine in healthy volunteers (adverse events, vital signs, ECG). It counts as in vivo, human. The procedure:
(§1) Pulse oximetry and capnography data were collected continuously using a GE Carescape B650 monitoring system from 2 hours prior to dosing and until six hours after dosing, and thereafter at 12, 24, 48 and 72 hours post-dosing. […] Pupillary miosis was assessed by pupillometry.
(§2) Safety and tolerability of noribogaine were tested in the group of volunteers from Example 1. […] Safety evaluations included clinical monitoring, recording of adverse events (AEs), safety laboratory tests, vital signs, ECG telemetry from −2 h to 6 h after dosing, and 12-lead electrocardiograms (ECGs) up to 216 hours post-dosing.

Series [3] in a line: Pupillometry (pupillary miosis) in healthy volunteers. It counts as in vivo, human. The protocol:
as §1

Series [4] can be described thus: Safety and QT interval in opioid-dependent participants. The format is in vivo, human. Particulars: for Mean prolongation of the QT interval: opioid-dependent patients. The protocol: (§3) The efficacy of noribogaine in humans was evaluated in opioid-dependent participants in a randomized, placebo-controlled, double-blind trial. […] See U.S. Provisional Application Ser. No. 61/852,485, filed Mar. 15, 2013, which is incorporated herein by reference in its entirety.
(§4) In the first cohort, six patients were orally administered a single dose of 60 mg noribogaine, and three patients received placebo. In the second cohort, five patients were orally administered a single dose of 120 mg noribogaine, and three patients received placebo.

A short description of series [5]: Efficacy of noribogaine in opioid-dependent participants: time to resumption of opioid substitution treatment. The format is in vivo, human. The following applies: for average time to resumption of opioids: single oral dose. The protocol:
as §3, §4
FIG. 3 indicates the serum noribogaine concentration over time. Serum concentrations for 120 mg dose (black squares) are estimated based on data from the 60 mg dose (gray diamonds).

Series [6] in a line: Cold pressor test (analgesic effect) in healthy volunteers. It counts as in vivo, human. The protocol: Analgesic effect was assessed based on duration of hand immersion in ice water and on visual analog scale (VAS) pain scores upon hand removal from the water bath.
as §2

Where [7] appears, read: plasma glucuronide after single oral 30 mg noribogaine, healthy volunteers, mean (SD), n = 6.
[8] abbreviates: plasma glucuronide after single oral 60 mg noribogaine, healthy volunteers, mean (SD), n = 6.
The mark [9] stands for this setting: 3 mg dose group, healthy volunteers.
The mark [10] stands for this setting: across dose groups (3-60 mg), healthy volunteers.
Setting [11] is: after adjusting for baseline differences, p>0.9.
[12] abbreviates: opioid-dependent participants, single oral 60 mg or 120 mg.

For the compound `CC[C@H]1C[C@@H]2C[C@H]3c4[nH]c5ccc(OC6OC(C(=O)O)C(O)C(O)C6O)cc5c4CCN(C2)[C@@H]13` (stereo partly drawn) [Noribogaine glucuronide], in series [1] (setting [7]), the “AUC0-216 of noribogaine glucuronide” value was 25.7 (9.1) ng · hr/ml, the “AUC0-∞ of noribogaine glucuronide” value was 25.8 (9.3) ng · hr/ml, the “Cmax of noribogaine glucuronide” value is 1.8 (0.6) ng/ml and the “Tmax of noribogaine glucuronide” value is given as 3.0 (0.6) hr. For the same compound, the “t1/2 of noribogaine glucuronide” value in series [1] (setting [7]) was 20.6 (4.9) hr. Further, in series [1] (setting [8]), the “AUC0-216 of noribogaine glucuronide” value is listed as 65.0 (21.5) ng · hr/ml, the “AUC0-∞ of noribogaine glucuronide” value is recorded as 67.1 (21.9) ng · hr/ml, the “Cmax of noribogaine glucuronide” value is listed as 4.1 (1.2) ng/ml and the “Tmax of noribogaine glucuronide” value is on record as 3.8 (1.2) hr. Besides, in series [1] (setting [8]), the “t1/2 of noribogaine glucuronide” value is listed as 23.1 (3.0) hr. The “time of peak glucuronide concentrations after noribogaine dosing” value in series [1] (plasma, 30 mg and 60 mg noribogaine dose groups) lay within 3 to 4 h.

For `CC[C@H]1CC2C[C@H]3c4[nH]c5ccc(O)cc5c4CCN(C2)C13` [Noribogaine], the “adverse events, Mild” value is recorded as “Dizziness; also recorded: Epistaxis; also recorded: Headache; also recorded: Back pain” in series [2] (setting [9]); “Headache” in series [2] (10 mg dose group, healthy volunteers); “Headache” in series [2] (30 mg dose group, healthy volunteers). The “adverse events, Moderate” value in series [2] (setting [9]) was “Headache”. Also, the “number of adverse events reported” value is listed as “five adverse events” in series [2] (3 mg dose group, two subjects); “one adverse event” in series [2] (10 mg dose group, single subject); “one adverse event” in series [2] (30 mg dose group, single subject). In addition, the “intensity of adverse events” value in series [2] (all dose groups, all resolved prior to study completion) is reported as “mild-moderate intensity”. Further, the “changes in oximetry, capnography or respiratory rate” value in series [2] (healthy volunteers, 3-60 mg) is recorded as “no changes in oximetry or capnography, or changes in respiratory rate”. Further, the “changes in vital signs or safety laboratory tests” value in series [2] (healthy volunteers, 3-60 mg) is on record as “no changes in vital signs or safety laboratory tests of note”. Also, the “dose-proportionality of Cmax and AUC” value in series [1] (3-60 mg single oral doses, linear regression) is reported as “increased linearly with dose”. For the same compound, in series [1] (setting [10]), the Mean half-life estimates is 28 to 50 h. The compound also registered a Volume of distribution in series [1] (setting [10]) of 1417 to 3086 L. Besides, the CL/F in series [1] (healthy male volunteers, single oral 3 mg noribogaine, mean (SD), n = 6) is 41.4 (7.0) L/h; in series [1] (healthy male volunteers, single oral 10 mg noribogaine, mean (SD), n = 6), 42.3 (12.0) L/h; in series [1] (healthy male volunteers, single oral 30 mg noribogaine, mean (SD), n = 6), 46.9 (16.4) L/h; in series [1] (healthy male volunteers, single oral 60 mg noribogaine, mean (SD), n = 6) it was 34.0 (11.4) L/h. The Tmax in series [1] (healthy male volunteers, single oral 30 mg noribogaine, plasma, mean (SD), n = 6) is listed as 1.8 (0.6) hr. The “time of peak concentrations after oral dosing” value in series [1] (healthy volunteers, 3-60 mg dose groups) fell in the range of 2 to 3 h. For the same compound, the “pupil diameter, each dose group vs placebo (ANOVA)” value in series [3] (setting [11]) is “no statistically significant differences”. In series [3] (healthy volunteers, 3-60 mg single oral dose), the pupillary constriction entry is “no evidence of pupillary constriction”. Also, the entries for the “Mean prolongation of the QT interval” value in series [4] (first cohort (60 mg noribogaine or placebo)) and in series [4] (second cohort (120 mg noribogaine or placebo)) were “less than 10 ms” and “less than 40 ms”, respectively. In series [4] (setting [12]), the adverse effects entry is listed as “No adverse effects”. In addition, the hallucinatory effects result in series [4] (setting [12]) is “no hallucinatory effects”. Besides, the “prolongation of the treated patient's QT interval” value in series [4] (summary statement, increases in opioid addicted patients compared to healthy individuals) is reported as “dose dependent prolongation”. Moreover, the “average time to resumption of opioids” value in series [5] (first cohort, blinded: 60 mg noribogaine (6 patients) or placebo (3 patients)) was “approximately 8.7 hours”; in series [5] (second cohort, blinded: 120 mg noribogaine (5 patients) or placebo (3 patients)), “approximately 23 hours”. The “time to resumption of opioids longer than reported for untreated patients in a similar study” value in series [5] (first cohort, blinded: 60 mg noribogaine or placebo) was roughly 2 h. Besides, the “average time to resumption of OST” value in series [5] (five presumed noribogaine-treated patients of second cohort (imputed, 120 mg), placebo construed from no QT prolongation) is “approximately 26.8 hours”. Further, the “impact on withdrawal symptoms in addicted patients” value in series [5] (lower dosing of noribogaine, human clinical studies (summary statement)) was “minimal impact on withdrawal symptoms”. The “VAS pain scores, each dose group vs placebo (ANOVA)” value in series [6] (after adjusting for baseline differences, p=0.17) was “no statistically significant differences”. Also, the “duration of hand immersion, each dose group vs placebo (ANOVA)” value in series [6] (setting [11]) is “no statistically significant differences”. For the same compound, the “analgesic effect in the cold pressor test” value in series [6] (healthy volunteers, 3-60 mg single oral dose, 1° C. water) was “no analgesic effect”.
